Measurements published in patent publication US20100041892A1, “Therapeutic agent for diabetes” (priority 2005, published 2010).
Read-outs that look alike come from different tables or passages of the source.

Columns and labels:
PPARγ-RXRα heterodimer = target: T1, PPARγ-RXRα heterodimer (Homo sapiens, UniProt P37231); assay: PPARγ-RXRα heterodimer ligand activity (luciferase reporter, PPARγ:RXRα:4ERPP/CHO-K1 cells); format: cell-based; details: concentration showing 50% of the maximum luciferase induction rate; CHO-K1 reporter cells, one day incubation
T1 construct: expressed in transfected cells; host or cells: CHO-K1 (PPARγ:RXRα:4ERPP/CHO-K1)
T1 sequence (P37231 1-477 isoform P37231-2): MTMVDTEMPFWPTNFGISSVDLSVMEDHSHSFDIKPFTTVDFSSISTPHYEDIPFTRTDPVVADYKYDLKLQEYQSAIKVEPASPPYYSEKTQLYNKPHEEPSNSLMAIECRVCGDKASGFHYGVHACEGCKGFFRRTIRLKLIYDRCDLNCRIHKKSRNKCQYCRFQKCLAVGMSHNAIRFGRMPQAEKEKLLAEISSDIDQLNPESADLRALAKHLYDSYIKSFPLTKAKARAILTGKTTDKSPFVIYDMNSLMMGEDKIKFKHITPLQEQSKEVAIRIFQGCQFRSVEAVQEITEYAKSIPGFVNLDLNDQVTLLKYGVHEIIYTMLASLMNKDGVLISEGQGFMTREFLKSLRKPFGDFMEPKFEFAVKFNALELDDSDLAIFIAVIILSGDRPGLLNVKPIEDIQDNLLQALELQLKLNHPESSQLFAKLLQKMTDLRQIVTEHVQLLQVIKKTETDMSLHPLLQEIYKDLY
T1 sequence (P19793 1-462 partner): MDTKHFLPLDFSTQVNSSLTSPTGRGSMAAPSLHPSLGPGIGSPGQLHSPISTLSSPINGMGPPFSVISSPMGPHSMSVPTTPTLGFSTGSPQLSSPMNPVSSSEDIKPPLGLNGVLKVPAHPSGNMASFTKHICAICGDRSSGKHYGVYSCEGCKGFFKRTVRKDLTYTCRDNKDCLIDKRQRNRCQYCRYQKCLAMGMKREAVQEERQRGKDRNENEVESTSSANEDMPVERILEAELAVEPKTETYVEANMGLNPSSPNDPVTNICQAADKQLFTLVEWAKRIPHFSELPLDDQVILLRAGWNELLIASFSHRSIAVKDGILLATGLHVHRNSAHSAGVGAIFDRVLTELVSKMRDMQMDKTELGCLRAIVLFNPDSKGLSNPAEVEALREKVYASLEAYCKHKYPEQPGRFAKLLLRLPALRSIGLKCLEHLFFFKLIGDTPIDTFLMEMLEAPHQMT
Protocol: The PPARγ:RXRα:4ERPP/CHO-K1 cells described in WO03/099793 were cultured in a Ham F12 medium [manufactured by Life Technologies, Inc., US] containing 10% calf fetal serum [manufactured by Life Technologies, Inc., US], sown in a 96-well white plate (manufactured by Corning Coster Corporation, US] at 1×10^4 cells/well, and incubated overnight in a carbon dioxide gas incubator at 37° C.
Then, the medium was removed from the 96 well white plate, 45 μl of Ham F12-medium containing 0.1% fatty acid-free bovine serum albumin (BSA) and a test compound (5 μl) were added, and the cells were incubated for one day in a carbon dioxide gas incubator at 37° C. The medium was removed, 20 μl of PicaGene 7.5 (manufactured by Wako Pure Chemical Industries, Ltd.) 2-fold diluted with HBSS (HANKS' BALANCED SALT SOLUTION) [manufactured by BIO WHITTAKER, US] was added. After stirring, the luciferase activity was determined using the 1420 ARVO Multilabel Counter [manufactured by PerkinElmer, US].
The induction rate was calculated from the luciferase activity of each test compound based on the luciferase activity of the test compound non-administration group as 1. The test compound concentration and the induction rate were analyzed by PRISM [manufactured by GraphPad Software, Inc., US] to calculate EC50 value (compound concentration showing 50% of the maximum value of induction rate) of the test compound.

KKAy mice = assay: Blood glucose and blood lipid (triglyceride) lowering action in mice; format: in vivo; details: Mus musculus, 4TO7, po, 4 to 7 days; for response vs control in vivo at 0.01 %: 0.01% in powder diet; for response vs control in vivo at 0.03 %: 0.03% in powder diet
Source text: The test compound was mixed with a powder diet (CE-2, CLEA JAPAN, INC.) at a proportion of 0.01% (0.03% for the compounds of Examples 1, 2, 12, 81, 94, 96, 129 and 143, and 0.005% for the compounds of Examples 28, 30 and 37) and freely given to KKAy mice (9 to 14-week-old, 5 mice per group) which are obesity non-insulin-dependent diabetes (type-2 diabetes) models, for 4 to 7 days. During this period, water was freely given. The blood was drawn from the orbital venous plexus. Glucose and triglyceride in the plasma separated from the blood were quantitated using L Type Wako Glu2 (Wako Pure Chemical Industries, Ltd.) and L Type Wako TG·H (Wako Pure Chemical Industries, Ltd.), respectively, according to an enzyme method.

[1] = plasma glucose relative to non-administration group = 100%, read-out: hypoglycemic action (%)
[2] = plasma triglyceride relative to non-administration group = 100%, read-out: hypolipidemic action (%)

| SMILES | EC50 (PPARγ-RXRα heterodimer) | melting point | response vs control in vivo at 0.01 % (KKAy mice; [1]) | response vs control in vivo at 0.01 % (KKAy mice; [2]) | response vs control in vivo at 0.03 % (KKAy mice; [1]) | response vs control in vivo at 0.03 % (KKAy mice; [2]) |
| --- | --- | --- | --- | --- | --- | --- |
| CC(C)CCS(=O)(=O)NC(=O)/C=C/c1cc(OCC2CC2)nn1Cc1ccc(C(F)(F)F)cc1Cl [Example 26, (2E)-3-[1-[2-chloro-4-(trifluoromethyl)benzyl]-3-(cyclopropylmethoxy)-1H-pyrazol-5-yl]-N-[(3-methylbutyl)sulfonyl]acrylamide] | 4.6 nM | 155.5 to 157.5 °C | 50% | 62% |  |  |
| CCCCCS(=O)(=O)NC(=O)CCc1cc(OCCCC)nn1Cc1ccc(Cl)cc1Cl [Example 97, 3-[3-butoxy-1-(2,4-dichlorobenzyl)-1H-pyrazol-5-yl]-N-(pentylsulfonyl)propanamide] | 7.5 nM | 104 to 105 °C | 58% | 64% |  |  |
| CC(C)CCS(=O)(=O)NC(=O)/C=C/c1cc(OC(C)C)nn1Cc1ccc(C(F)(F)F)cc1Cl [Example 112, (2E)-3-{1-[2-chloro-4-(trifluoromethyl)benzyl]-3-isopropoxy-1H-pyrazol-5-yl}-N-[(3-methylbutyl)sulfonyl]acrylamide] | 8.3 nM |  | 53% | 70% |  |  |
| CCCCOC(=O)NS(=O)(=O)CCc1cc(OCCCC)nn1Cc1ccc(Cl)cc1Cl [Example 129, butyl ({2-[3-butoxy-1-(2,4-dichlorobenzyl)-1H-pyrazol-5-yl]ethyl}sulfonyl)carbamate] | 10 nM | 108 to 111 °C |  |  | 45% | 76% |
| CCCCCS(=O)(=O)NC(=O)/C=C/c1cc(OCC2CC2)nn1Cc1ccc(C(F)(F)F)cc1Cl [Example 151, (2E)-3-[1-[2-chloro-4-(trifluoromethyl)benzyl]-3-(cyclopropylmethoxy)-1H-pyrazol-5-yl]-N-(pentylsulfonyl)acrylamide] | 7.2 nM | 148 to 151 °C | 59% | 73% |  |  |
| CCCCCS(=O)(=O)NC(=O)/C=C/c1cc(C2CC2)nn1Cc1ccc(C(F)(F)F)cc1Cl [Example 155, (2E)-3-{1-[2-chloro-4-(trifluoromethyl)benzyl]-3-cyclopropyl-1H-pyrazol-5-yl}-N-(pentylsulfonyl)acrylamide] | 12 nM |  | 70% | 70% |  |  |
| CCCCCS(=O)(=O)NC(=O)/C=C/c1ccc(OCCO)cc1Oc1ncc(C(F)(F)F)cc1Cl [Example 218, (2E)-3-[2-{[3-chloro-5-(trifluoromethyl)pyridin-2-yl]oxy}-4-(2-hydroxyethoxy)phenyl]-N-(pentylsulfonyl)acrylamide monohydrate] | 80 nM |  | 81% | 129% |  |  |
| CCCCCS(=O)(=O)NC(=O)/C=C/c1ccc(OCCOC2CC2)cc1Oc1ncc(C(F)(F)F)cc1Cl [Example 424, (2E)-3-{2-{[3-chloro-5-(trifluoromethyl)pyridin-2-yl]oxy}-4-[2-(cyclopropyloxy)ethoxy]phenyl}-N-(pentylsulfonyl)acrylamide] | 6.2 nM |  | 70% | 18% |  |  |

Second part, led by results:

| EC50 (PPARγ-RXRα heterodimer) | SMILES | melting point | response vs control in vivo at 0.01 % (KKAy mice; [1]) | response vs control in vivo at 0.01 % (KKAy mice; [2]) | response vs control in vivo at 0.03 % (KKAy mice; [1]) | response vs control in vivo at 0.03 % (KKAy mice; [2]) |
| --- | --- | --- | --- | --- | --- | --- |
| 0.92 nM | COCCOc1ccc(CCCOC(=O)NS(=O)(=O)NCCOC(C)C)c(Oc2ncc(C(F)(F)F)cc2Cl)c1 [Example 204, 3-[2-{[3-chloro-5-(trifluoromethyl)pyridin-2-yl]oxy}-4-(2-methoxyethoxy)phenyl]propyl {[(2-isopropoxyethyl)amino]sulfonyl}carbamate] |  | 52% | 36% |  |  |
| 6.7 nM | CCCCCS(=O)(=O)NC(=O)C(Cc1ccc(OCCOC)cc1Oc1ncc(C(F)(F)F)cc1Cl)OC (stereo not shown) [Example 210, 3-[2-{[3-chloro-5-(trifluoromethyl)pyridin-2-yl]oxy}-4-(2-methoxyethoxy)phenyl]-2-methoxy-N-(pentylsulfonyl)propanamide] |  | 58% | 69% |  |  |
| 5.2 nM | CCCCCS(=O)(=O)NC(=O)/C(C)=C/c1ccc(OCCOC)cc1Oc1ncc(C(F)(F)F)cc1Cl [Example 211, (2E)-3-[2-{[3-chloro-5-(trifluoromethyl)pyridin-2-yl]oxy}-4-(2-methoxyethoxy)phenyl]-2-methyl-N-(pentylsulfonyl)acrylamide] |  | 49% | 46% |  |  |
| 1.1 nM | CCCCCNS(=O)(=O)NC(=O)CCc1ccc(OCCOC)cc1Oc1ncc(C(F)(F)F)cc1Cl [Example 214, 3-[2-{[3-chloro-5-(trifluoromethyl)pyridin-2-yl]oxy}-4-(2-methoxyethoxy)phenyl]-N-[(pentylamino)sulfonyl]propanamide] |  | 56% | 65% |  |  |
| 7.2 nM | CCCCCS(=O)(=O)NC(=O)/C=C/c1ccc(OCC(C)(C)O)cc1Oc1ncc(C(F)(F)F)cc1Cl [Example 250, (2E)-3-[2-{[3-chloro-5-(trifluoromethyl)pyridin-2-yl]oxy}-4-(2-hydroxy-2-methylpropoxy)phenyl]-N-(pentylsulfonyl)acrylamide] |  | 78% | 121% |  |  |
| 3.1 nM | CCCCCS(=O)(=O)NC(=O)C(C)(C)Cc1ccc(OCCOC)cc1Oc1ncc(C(F)(F)F)cc1Cl [Example 252, 3-[2-{[3-chloro-5-(trifluoromethyl)pyridin-2-yl]oxy}-4-(2-methoxyethoxy)phenyl]-2,2-dimethyl-N-(pentylsulfonyl)propanamide] |  | 46% | 20% |  |  |
| 1.8 nM | CC(C)OCCNS(=O)(=O)NC(=O)OCCCc1ccc(OCCO)cc1Oc1ncc(C(F)(F)F)cc1Cl [Example 439, 3-[2-{[3-chloro-5-(trifluoromethyl)pyridin-2-yl]oxy}-4-(2-hydroxyethoxy)phenyl]propyl {[(2-isopropoxyethyl)amino]sulfonyl}carbamate] |  | 49% | 34% |  |  |
| 3.4 nM | CC(C)Oc1ccc(CCCOC(=O)NS(=O)(=O)NCCc2ccccn2)c(Oc2ncc(C(F)(F)F)cc2Cl)c1 [Example 444, 3-(2-{[3-chloro-5-(trifluoromethyl)pyridin-2-yl]oxy}-47 isopropoxyphenyl)propyl {[(2-pyridin-2-ylethyl)amino]sulfonyl}carbamate] |  | 55% | 52% |  |  |
